Data set [1] deals with H4IIE hepatoma cells. The data set is described as follows: DNA synthesis (3H-thymidine incorporation) in H4IIE cells. It counts as cell-based. As to the method: Incorporation of uridine or thymidine was used to define the change in rate of […] synthesis, respectively, in response to a mitogen such as insulin. Specifically, quiescent H4IIE cells were prepared by placing the cultures (in 24-well dishes) into serum-free a-minimal essential medium for 3 days. It is of note that the normal growth media for H4IIE cells is α-MEM containing 10% fetal bovine serum (FBS). After reaching quiescence, the cells were stimulated with 1 μM insulin and incubated for either 6 hours or 24 hours in the presence of 1 μCi/ml ^3H-uridine or ^3H-thymidine, respectively. Cells were subsequently lysed with detergent and the nucleic acids precipitated with 5% trichloroacetic acid. The precipitated material was collected on glass fibre filters and the radioactive content measured by scintillation counting. […] Furthermore, while complete inhibition of DNA synthesis by MIBG is obtained at approximately 20 μM, higher concentrations decrease basal DNA synthesis below control levels.
In general terms: Incorporation of labelled thymidine or its analogues reports DNA synthesis.

The next data set deals with smooth muscle cells. The settings on record: cited from earlier work.
The next data set has as its system L6 myoblasts. The data set is described as follows: L6 myoblast differentiation. It counts as cell-based. The settings on record: 25 μM; 2.5% horse serum; 4 days; FIG. 32.
A further data set concerns H4IIE cells. The data set is described as follows: lactate dehydrogenase (LDH) release toxicity assay. The data set is classed as cell-based. To be noted: 96 hours; FIG. 5. As to the method: To address the issue of MIBG toxicity, lactate dehydrogenase (LDH) release was measured after incubation with MIBG or MIBA. Quiescent H4IIE cells were prepared in 96-well dishes and treated with various concentrations of either MIBG or MIBA for 96 hours. To quantify the release of LDH from the cells, which only occurs if the cells are damaged or killed by the treatment, 100 μl of culture medium was transferred to a fresh dish. To this was added 100 μl of dye/catalyst mixture (Boehringer Mannheim cytotoxicity detection kitTM), and the samples were subsequently incubated for 30 minutes at 37° C. Absorbance of the solution was monitored at 490 nm. The colour intensity indicates the relative LDH content in the test samples. […] As a consequence, it is speculated that changes in LDH release may be coupled to non-toxic and reversible alterations in mitochondrial metabolism or membrane integrity as a result of MIBG treatment.

The subject of data set [2] is smooth muscle cells derived from human arterial conduits. In words: DNA synthesis and cytotoxicity in human smooth muscle cells. The settings on record: FIG. 26A.
Data set [3] deals with porcine radial artery to coronary artery anastomoses. In words: bypass graft organ culture, PCNA expression. To be noted: 25 μM, 14 days in culture; FIG. 18. As for the experimental part: Analogous to the organ culture model described above, a model of a radial artery to coronary artery bypass graft has been developed. It is of note that the construction of this anastomosis is identical to that used clinically in a bypass operation. Specifically, porcine radial artery to coronary artery anstomoses were conducted and placed into culture for 14 days. Control segments included coronary artery dissected and immediately frozen or incubated for 14 days before freezing. Alternatively, the anastomoses were incubated in the presence of 25 μM MIBG. PCNA (proliferating cell nuclear antigen) was detected by immunostaining after cryosectioning of the vessels. Nuclei were visualized with Hoescht […]. The numbers of nuclei and PCNA positive nuclei were determined and used to quantify the proliferation index.

A further data set has as its system c-fos. In words: c-fos gene expression by RT-PCR in human smooth muscle cells. The data set is classed as cell-based. To be noted: 25 μM MIBG pretreatment (10 minutes), then IGF-1 stimulated 15 minutes.
For another data set, the system named is MAP kinase. The data set is described as follows: MAP kinase activity gel after insulin stimulation of H4IIE cells. It counts as cell-based. The settings on record: 50 μM MIBG; 1 μM insulin; 2-20 minutes; FIG. 27. As for the experimental part:
Extracts were prepared at 2, 5, 10 and 20 minutes after insulin addition. MAP kinase activity was measured using an activity gel protocol with myelin basic protein polymerized in the separating gel, as described in Yau and Zahradka, 1997, Mol Cell Biochem 172: 59-66. Scanning densitometry was used to quantify the band intensities. The location of the 42 and 44 kDa MAP kinase bands was confirmed by Western blot analysis.

Data set [4] concerns H4IIE hepatoma cells. In words: RNA synthesis (3H-uridine incorporation) in insulin-stimulated quiescent H4IIE cells. The data set is classed as cell-based. The settings on record: comparison with 3-aminobenzamide; 1 μM insulin, 6 hours; FIG. 1. As to the method:
Incorporation of uridine or thymidine was used to define the change in rate of […] synthesis, respectively, in response to a mitogen such as insulin. Specifically, quiescent H4IIE cells were prepared by placing the cultures (in 24-well dishes) into serum-free a-minimal essential medium for 3 days. It is of note that the normal growth media for H4IIE cells is α-MEM containing 10% fetal bovine serum (FBS). […] Cells were subsequently lysed with detergent and the nucleic acids precipitated with 5% trichloroacetic acid. The precipitated material was collected on glass fibre filters and the radioactive content measured by scintillation counting.

The text below walks through data of US6544541B1, “Devices and compounds for treating arterial restenosis” (Cardiovascular Solutions, Inc., priority 1999, dated 2003).

Consider meta-iodobenzylguanidine [MIBG], for which the “concentration for complete inhibition of DNA synthesis” value with H4IIE hepatoma cells [1] (1 μM insulin, 24 hours, FIG. 2) is “approximately 20 μM”. Moreover, the “inhibition of DNA synthesis (thymidine incorporation)” value in the data set on H4IIE hepatoma cells [1] (H4IIE cells) is “inhibits DNA synthesis”. In addition, in the data set on smooth muscle cells, the “DNA synthesis (thymidine uptake)” value was “had no effect on DNA synthesis”, the cell number entry was “prevents an increase in cell number” and the “production of collagen type I” value is reported as “decreased the production of collagen type I”. In the data set on L6 myoblasts, the “effect on L6 myoblast differentiation” value is given as “inhibits differentiation of L6 myoblasts at an early stage”. Moreover, in the data set on H4IIE cells, the “concentration at which increased LDH release is detectable” value was determined as 50 µM. The “DNA synthesis and cytotoxicity compared with porcine cells” value in [2] is “comparable effects in both porcine and human tissues”. For the same substance, in [3], the “increase in PCNA expression compared to segment examined immediately after dissection” value is less than 10 fold. Besides, in the data set with c-fos, the “c-fos mRNA levels” value was “equivalent to or below basal”. Moreover, in the data set on MAP kinase, the “MAP kinase activation by insulin” value was “does not inhibit MAP kinase activation by insulin”. Moreover, the “inhibition of cell growth as indicated by RNA synthesis in response to insulin” value in the data set with H4IIE hepatoma cells [4] is listed as “more potent inhibitor of cell growth”.
